This passage reports melting point results from patent US20020103192A1, “Inhibitors of histone deacetylase” (priority 2000, published 2002).

Each structure is given as a SMILES string.

Broadly, the melting point is the temperature of the solid-liquid transition. In turn, `O=C(NCCCCCCC(=O)c1ncco1)c1cc2ccccc2[nH]1` [Example 110, N-(7-(1 ,3-oxazol-2-yl)-7-oxoheptyl)-1H-indole-2-carboxamide] showed a melting point of 153 to 156 °C.

`O=C(CCCCCCS(=O)(=O)c1ccccc1)c1ncco1` [Example 103, 1-(1,3-oxazol-2-yl)-7-(phenylsulfonyl)-1-heptanone] gave a melting point of 55 to 56 °C.

As for `CNC(=O)C(=O)CCCCCCSc1ccc2ccccc2c1` [Example 106, N-methyl-8-(2-naphthylsulfanyl)-2-oxooctanamide], the melting point is 94 to 95 °C.

As to `O=C(NCCCCCC(=O)c1ncco1)c1cc2ccccc2[nH]1` [Example 111, N-(6-(1,3-oxazol-2-yl)-6-oxohexyl)-1H-indole-2-carboxamide], the melting point fell in the range of 176 to 179 °C.

As for `CNC(=O)C(=O)CCCCCCS(=O)(=O)c1ccc2ccccc2c1` [Example 107, N-methyl-8-(2-naphthylsulfonyl)-2-oxooctanamide], the melting point lay in the range of 108 to 109 °C.

Take `CC(=O)C(=O)CCCCCCOc1ccc(-c2ccccc2)cc1` [Example 113, 9-((1,1′-biphenyl)-4-yloxy)-2,3-nonanedione]: the melting point lay within 110 to 111 °C.

As to `O=C(CCCCCCS(=O)(=O)c1ccc2ccccc2c1)c1ncco1` [Example 105, 7-(2-naphthylsulfonyl)-1-(1,3-oxazol-2-yl)-1-heptanone], the melting point fell in the range of 75 to 76 °C.

The compound `CNC(=O)C(=O)CCCCCCSc1ccc(-c2ccccc2)cc1` [Example 108, 8-((1,1′-biphenyl)-4-ylsulfanyl)-N-methyl-2-oxooctanamide] registered a melting point of 131 to 132 °C.

`O=C(CCCCCCSc1ccccc1)c1ncco1` [Example 102, 1-(1,3-oxazol-2-yl)-7-(phenylsulfanyl)-1-heptanone] registered a melting point of 39 to 40 °C.

Consider `O=C(CCCCCCSc1ccc2ccccc2c1)c1ncco1` [Example 104, 7-(2-naphthylsulfanyl)-1-(1,3-oxazol-2-yl)-1-heptanone], for which the melting point was in the range of 65 to 66 °C.
